The target of one data set is T1, 5-HT1A receptor (Homo sapiens, UniProt P08908).
T1 construct: host or cells: CHO cells
T1 sequence (P08908 1-422): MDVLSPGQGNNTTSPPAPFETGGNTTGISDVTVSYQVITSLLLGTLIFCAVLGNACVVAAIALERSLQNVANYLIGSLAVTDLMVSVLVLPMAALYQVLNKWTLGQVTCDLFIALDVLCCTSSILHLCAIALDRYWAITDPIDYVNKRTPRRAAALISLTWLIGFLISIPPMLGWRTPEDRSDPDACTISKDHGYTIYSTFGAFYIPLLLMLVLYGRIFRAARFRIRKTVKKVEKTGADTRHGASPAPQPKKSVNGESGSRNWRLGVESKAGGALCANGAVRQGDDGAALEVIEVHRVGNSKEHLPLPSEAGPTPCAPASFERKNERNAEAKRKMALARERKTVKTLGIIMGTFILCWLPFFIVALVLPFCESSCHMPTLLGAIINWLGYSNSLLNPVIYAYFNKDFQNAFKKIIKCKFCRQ
Briefly: cell-based. The conditions noted are these: Ca^2+ flux, agonist; read-out: 5-HT1A EC50.

The next data set has as its target T2, 5-HT2B receptor (Homo sapiens, UniProt P41595).
T2 construct: host or cells: HEK293
Nature of the data set: cell-based. The conditions noted are these: Ca^2+ flux, agonist; for EC50: read-out: 5-HT2B EC50.

For another data set, the target named is T3, 5-HT2A receptor (Homo sapiens, UniProt P28223).
T3 construct: host or cells: HEK293
T3 sequence (P28223 whole entry): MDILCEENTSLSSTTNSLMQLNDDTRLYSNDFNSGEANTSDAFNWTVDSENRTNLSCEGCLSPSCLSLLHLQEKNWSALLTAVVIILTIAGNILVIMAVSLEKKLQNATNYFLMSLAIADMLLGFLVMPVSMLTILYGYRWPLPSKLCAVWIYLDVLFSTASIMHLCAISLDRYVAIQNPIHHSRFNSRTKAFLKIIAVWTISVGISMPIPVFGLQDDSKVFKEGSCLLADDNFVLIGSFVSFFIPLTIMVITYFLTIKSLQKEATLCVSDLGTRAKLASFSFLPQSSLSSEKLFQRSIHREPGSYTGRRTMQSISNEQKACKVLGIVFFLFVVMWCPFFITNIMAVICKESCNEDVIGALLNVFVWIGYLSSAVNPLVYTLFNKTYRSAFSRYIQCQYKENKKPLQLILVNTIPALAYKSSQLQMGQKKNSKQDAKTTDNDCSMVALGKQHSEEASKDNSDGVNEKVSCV
Briefly: PathHunter beta-arrestin recruitment assay at 5-HT2A. Format: cell-based. The conditions noted are these: for agonist type in arrestin recruitment assay (in words): 5-HT2A beta-arrestin. In a few lines:
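Cells co-express PK-tagged 5-HT2A and beta-arrestin fused to a beta-galactosidase deletion mutant, so arrestin recruitment restores enzyme activity, read by chemiluminescence; cells were held at 37° C before testing. Agonist % activity = RLU over vehicle, relative to the maximal control ligand.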

The target in the next data set is D2 receptor (Homo sapiens, UniProt P14416). Briefly: FLIPR Ca^2+ flux agonist assay at D2. It is filed as cell-based. The procedure:
Functional Assays at Adrenergic and Dopamine Receptors. Agonist activity at Alpha1A, Alpha2A, D1, and D2 receptors was determined using a FLIPR Ca^2+ flux assay at WuXi AppTec (Hong Kong) Limited according to their standard protocols. Briefly, stably transfected cells expressing the receptor of interest were grown and plated in a 384 well plate and incubated at 37° C. and 5% CO2 overnight. A solution of 250 mM probenecid in 1 mL FLIPR assay buffer was prepared fresh. This was combined with a fluorescent dye (Fluo-4 Direct™) to make a final assay concentration of 2.5 mM. […] The fluorescent dye was then added to the assay plate along with assay buffer to a final volume of 40 μL. The cell plate was incubated for 50 min at 37° C. and 5% CO2 and placed into the FLIPR Tetra along with the compound plate. 10 μL of references and compounds were then transferred from the compound plate into the cell plate and the fluorescent signal was read.

The nature of data set [1]: Metabolic stability in mouse liver microsomes (MLM). It is filed as in vitro ADME. The conditions noted are these: 0.50 mg protein per mL; for t1/2: MLM (CD-1), 1 μM; for microsomal CLint at 1 μM: mouse, pooled mouse liver microsomes, pH 7.4, MLM (CD-1). The text has this: MLM Stability Pooled MLM from CD-1 mice (BIOIVT M00501) were used.
Data set [2] is described as follows: Metabolic stability in rat liver microsomes (RLM). The conditions noted are these: for t1/2: RLM, 0.50 mg protein per mL; for microsomal CLint at 1 μM: both, rat, pooled rat liver microsomes, pH 7.4. On the technique in general: Microsomes from liver hold many membrane-bound enzymes, among them those of drug oxidation.
[3] abbreviates: beta-arrestin recruitment, read-out: 5-HT2A Arrestin EC50.
Setting [4] is: Ca^2+ flux, agonist, read-out: D2 EC50.

Where two headings read alike, the source gives them in different places. Some results are limits rather than exact numbers.

D2 receptor, sequence (P14416 whole entry): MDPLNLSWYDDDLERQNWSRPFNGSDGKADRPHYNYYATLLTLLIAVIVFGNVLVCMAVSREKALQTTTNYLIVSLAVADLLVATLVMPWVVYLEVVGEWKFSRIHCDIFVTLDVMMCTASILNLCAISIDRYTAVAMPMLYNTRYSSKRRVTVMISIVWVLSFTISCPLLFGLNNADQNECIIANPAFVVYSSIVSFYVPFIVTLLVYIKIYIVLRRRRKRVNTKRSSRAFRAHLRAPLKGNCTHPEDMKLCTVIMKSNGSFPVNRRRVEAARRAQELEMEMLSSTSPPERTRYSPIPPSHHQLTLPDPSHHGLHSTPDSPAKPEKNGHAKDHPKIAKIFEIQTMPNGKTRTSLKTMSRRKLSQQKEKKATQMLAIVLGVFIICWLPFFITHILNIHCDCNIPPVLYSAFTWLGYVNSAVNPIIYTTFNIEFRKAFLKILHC
T2 sequence (P41595 whole entry): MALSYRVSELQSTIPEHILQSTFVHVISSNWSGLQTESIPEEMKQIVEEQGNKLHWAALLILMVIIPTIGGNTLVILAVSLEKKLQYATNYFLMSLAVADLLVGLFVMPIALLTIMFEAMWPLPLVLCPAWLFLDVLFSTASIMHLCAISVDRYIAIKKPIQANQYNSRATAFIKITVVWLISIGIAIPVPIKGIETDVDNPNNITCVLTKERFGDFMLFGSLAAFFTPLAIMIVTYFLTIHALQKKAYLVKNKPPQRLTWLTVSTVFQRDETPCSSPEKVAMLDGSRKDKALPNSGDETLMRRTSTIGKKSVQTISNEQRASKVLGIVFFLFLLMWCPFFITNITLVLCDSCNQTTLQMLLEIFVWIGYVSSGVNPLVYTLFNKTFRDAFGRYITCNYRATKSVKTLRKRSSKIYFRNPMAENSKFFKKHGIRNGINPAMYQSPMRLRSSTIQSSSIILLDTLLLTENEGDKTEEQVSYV

Take `CCN(CC)C(=O)[C@@H]1C=C2c3cccc4[nH]cc(c34)C[C@H]2N(Cc2ccccc2OC)C1` [Compound 10, (6aR,9R)—N,N-diethyl-7-(2-methoxybenzyl)-4,6,6a,7,8,9-hexahydroindolo[4,3-fg]quinoline-9-carboxamide]: the 50% effective concentration (EC50) (usually the concentration giving half of the maximal effect) at 5-HT1A receptor is 30.6 µM; at 5-HT2B receptor, more than 10 µM; on 5-HT2A receptor (setting [3]), 0.00847 µM; on D2 receptor (setting [4]) it was 0.983 µM. The “agonist type in arrestin recruitment assay (in words)” value (from here on “agonist type”) on 5-HT2A receptor is “partial agonists”. The “t1/2” value was determined as 1 min in data set [1] and 3.4 min in data set [2]. The intrinsic metabolic clearance (microsomal CLint) (in general, a measure of how fast metabolising enzymes remove a compound, apart from limits set by blood flow) at 1 μM turned out to be 1400 µL/min/mg in data set [1] and 407 µL/min/mg in data set [2].
For `CCCN1C[C@H](C(=O)NC(CC)CC)C=C2c3cccc4[nH]cc(c34)C[C@H]21` [Compound 6, (6aR,9R)—N-(pentan-3-yl)-7-propyl-4,6,6a,7,8,9-hexahydroindolo[4,3-fg]quinoline-9-carboxamide], the concentration for a half-maximal effect (EC50) on 5-HT1A receptor was determined as 0.0361 µM; at 5-HT2B receptor, 0.253 µM; at 5-HT2A receptor it was 0.00191 µM; on D2 receptor, 0.00701 µM. In addition, the “agonist type” value at 5-HT2A receptor is listed as “full agonists”. Also, the entries for the “t1/2” value in data set [1] and in data set [2] were 0.6 min and 1.655 min, respectively. Moreover, the intrinsic metabolic clearance (microsomal CLint) at 1 μM in data set [1] amounted to 2420 µL/min/mg; in data set [2], 837 µL/min/mg.
In the case of `CCCN1C[C@H](C(=O)N2[C@@H](C)C[C@@H]2C)C=C2c3cccc4[nH]cc(c34)C[C@H]21` [Compound 4, ((2S,4S)-2,4-dimethylazetidin-1-yl)((6aR,9R)-7-propyl-4,6,6a,7,8,9-hexahydroindolo[4,3-fg]quinolin-9-yl)methanone], the concentration giving a half-maximal response (EC50) is 0.00588 µM on 5-HT1A receptor, 0.511 µM at 5-HT2B receptor, 0.00144 µM at 5-HT2A receptor and 0.021 µM on D2 receptor. Besides, the “agonist type” value on 5-HT2A receptor is “full agonists”. For the same compound, the “t1/2” value in data set [1] is reported as 0.8 min; in data set [2] it was 12.8 min. Moreover, the microsomal CLint at 1 μM in data set [1] is 1670 µL/min/mg; in data set [2] it was 108 µL/min/mg.
Consider `CCN(CC)C(=O)[C@@H]1C=C2c3cccc4[nH]cc(c34)C[C@H]2N(CCCF)C1` [Compound 2, (6aR,9R)—N,N-diethyl-7-(3-fluoropropyl)-4,6,6a,7,8,9-hexahydroindolo[4,3-fg]quinoline-9-carboxamide], for which the EC50 at 5-HT1A receptor came out at 0.0254 µM; at 5-HT2B receptor, 0.202 µM; at 5-HT2A receptor, 0.00227 µM; at D2 receptor it was 0.0277 µM. Moreover, the “agonist type” value at 5-HT2A receptor is reported as “full agonists”. Moreover, the “t1/2” value in data set [1] came to 2.666 min; in data set [2], 11.972 min. Further, the figures for the microsomal CLint at 1 μM in data set [1] and in data set [2] were 520 µL/min/mg and 116 µL/min/mg, respectively.
With `CCCN1C[C@H](C(=O)N(CC)CC)C=C2c3cccc4[nH]cc(c34)C[C@H]21` [Compound 1, (6aR,9R)—N,N-diethyl-7-propyl-4,6,6a,7,8,9-hexahydroindolo[4,3-fg]quinoline-9-carboxamide], the concentration for a half-maximal effect (EC50) stood at 0.0444 µM at 5-HT1A receptor, 0.104 µM at 5-HT2B receptor, 0.00201 µM on 5-HT2A receptor and 0.00217 µM on D2 receptor. Besides, at 5-HT2A receptor, the “agonist type” value is listed as “full agonists”. Also, the “t1/2” value in data set [1] amounted to 2.3 min; in data set [2], 16.2 min. The microsomal CLint at 1 μM in data set [1] was 615 µL/min/mg; in data set [2], 85.4 µL/min/mg.
With `CCN(CC)C(=O)[C@@H]1C=C2c3cccc4[nH]cc(c34)C[C@H]2N(CCc2ccccc2OC)C1` [Compound 11, (6aR,9R)—N,N-diethyl-7-(2-methoxyphenethyl)-4,6,6a,7,8,9-hexahydroindolo[4,3-fg]quinoline-9-carboxamide], the half-maximal effective concentration (EC50) was 29.8 µM at 5-HT1A receptor, more than 10 µM on 5-HT2B receptor, 0.00127 µM at 5-HT2A receptor (setting [3]) and 0.854 µM on D2 receptor (setting [4]). Further, the “5-HT2B % Act @ Max Dose” value on 5-HT2B receptor was 2.5%. Besides, on 5-HT2A receptor, the “agonist type” value is listed as “partial agonists”. In addition, the “t1/2” value stood at 0.917 min in data set [1] and 1.159 min in data set [2]. Besides, the microsomal CLint at 1 μM in data set [1] was found to be 1510 µL/min/mg; in data set [2], 1200 µL/min/mg.
For `CCCN1C[C@H](C(=O)N[C@H](C)CC)C=C2c3cccc4[nH]cc(c34)C[C@H]21` [Compound 3, (6aR,9R)—N—((R)-sec-butyl)-7-propyl-4,6,6a,7,8,9-hexahydroindolo[4,3-fg]quinoline-9-carboxamide], the EC50 on 5-HT1A receptor is 0.00179 µM; at 5-HT2B receptor, 0.062 µM; at 5-HT2A receptor, less than 0.000509 µM; at D2 receptor, 0.0272 µM. On 5-HT2A receptor, the “agonist type” value was “full agonists”. For the same compound, the “t1/2” value in data set [1] came out at 1.6 min; in data set [2], 4.4 min. The figures for the microsomal CLint at 1 μM in data set [1] and in data set [2] were 894 µL/min/mg and 318 µL/min/mg, respectively.

The values are drawn from US20230116703A1, “NOVEL ERGOLINES AND METHODS OF TREATING MOOD DISORDERS” (priority 2021, published 2023).
